Laboratory results: patent US20240165202A1, “USES OF FGF21 POLYPEPTIDES AND FUSION POLYPEPTIDES THEREOF” (SUNSHINE LAKE PHARMA CO., LTD., priority 2021, published 2024)

Columns and labels:
[1] = test system: high-fat-induced C57BL/6 mice model; assay: High-fat diet induced C57BL/6 mice, 16 weeks dosing: random blood glucose, IPGTT, fasting glucose, insulin, HOMA-IR, body weight, fat mass; assay type: in vivo
From the text: (§1) After 16 weeks of high-fat diet feeding (D12492, Research Diets, Inc., New Brunswick, NJ), C57BL/6 mice (purchased from Hunan SJA Laboratory Animal Co., Ltd.) were randomly divided into vehicle group or treatment group according to the measured blood glucose and body weight. The study included control group with normal diet, high-fat diet Model group was administrated with vehicle PBS, subcutaneous injection of semaglutide once a day (QD) 10 nmol/kg, dual target 1 # was administrated twice weekly (BIW), the low dose was 3 nmol/kg and the high dose was 10 nmol/kg, 7 animals in each group. The drug groups were administrated the corresponding drugs according to the administration frequency for 16 consecutive weeks, and the high-fat diet was continued during the administration period until the end of the experiment. The random blood glucose, body weight and intraperitoneal glucose tolerance IPGTT of mice were monitored.
(§2) At the end of the experiment of Example 4, that is, the 16th week of administration, the animals were fasted overnight and could drink water. After the animals were weighed, the orbital blood was collected, serum was separated, and serum lipids (TG (triglyceride), TC (total cholesterol)) and liver function indexes ALT (alanine aminotransferase)/AST (aspartate aminotransferase) were detected by an automatic biochemical analyzer. Serum insulin levels were detected by Elisa kit, and the HOMA-IR index was calculated according to the formula, that is, HOMA-IR=fasting blood glucose (blood glucose value at 0 time of IPGTT in the 16th week)×fasting insulin/22.5. After the blood was collected, the liver, subcutaneous fat, epididymal fat and perirenal fat were dissected and weighed. About 40-60 mg of liver tissue was weighed and put into a homogenization tube, 1 mL of absolute ethanol was added for homogenization, then the homogenate was taken and centrifuged at 4° C., 3,500 rpm for 10 min. The supernatant was taken, and the concentrations of TG and TC in the supernatant were detected by an automatic biochemical analyzer, and then the contents of TG and TC were calculated according to the weighed liver weight

[2] = test system: high-fat-induced C57BL/6 mice model; assay: High-fat diet induced C57BL/6 mice: serum lipids, ALT/AST, liver weight, liver homogenate lipids; assay type: in vivo; conditions: 16th week of administration
From the text: as §1, §2

[3] = test system: high-fat diet induced C57BL/6 mice model; assay: High-fat diet induced C57BL/6 mice: liver histopathology NAS and fibrosis scores; assay type: in vivo; conditions: 10 nmol/kg (semaglutide QD, dual target 1# BIW), 16 weeks, Mean ± SD, n = 6-7
From the text: as §1
The left lobe of the liver obtained by dissection in Example 5 was immersed in a 50 mL centrifuge tube filled with formalin to prepare liver disease sections, and the formalin liver tissue was subjected to wax block making, sectioning, HE staining, and HE staining slices were mailed to Suzhou KCl Co., Ltd. for NAS scoring; fibrosis was assessed by Sirius red staining, and the scores were scored according to the severity of fibrosis, with a score of 1-3. Liver histopathological changes were observed under light microscope and NAS/fibrosis scores were performed.

[4] = test system: ob/ob mice nonalcoholic steatohepatitis (NASH) model; assay: ob/ob mice high-fat diet NASH model, 6 weeks dosing: blood glucose and body weight; assay type: in vivo; conditions: 10 nmol/kg
Procedure: (§3) 70 Male ob/ob mice (Changzhou Cavens Laboratory Animal Co., Ltd.) weighed about 43-45 g were fed with high-fat diet (D12492, Research Diets, Inc., New Brunswick, NJ) for 9 weeks to establish a nonalcoholic steatohepatitis (NASH) model. 3 Weeks after HFD feeding, the therapeutic efficacy of the compounds dual target fusion protein 1 #, Fc-FGF21 (single target 1 #) and Dulaglutide were tested after 6 weeks of dosing. The experimental animals were randomly divided into 5 groups according to body weight and blood glucose after […] of HFD feeding: the model group (group-1, n=10), the dual target fusion protein 1 #-3 nmol/kg group (group-2, n=10); the dual target fusion protein 1 #-10 nmol/kg group (group-3, […]); Fc-FGF21-10 nmol/kg group (group-4, n=10); Dulaglutide-10 nmol/kg (group-5, n=10). The model group was administrated PBS. The groups of dual target fusion protein 1 #, Fc-FGF21, and Dulaglutide were administrated twice a week for a total of 6 weeks. Feed intake, water intake and body weight of animals were recorded every two days after the start of HFD feeding until the end of the experiment. Blood glucose was measured at 0, 2, 7, 24, 48, 72 hours after the first administration, and then twice a week. At the end of the experiment, the animals were fasted to detect fasting blood glucose.

[5] = test system: ob/ob mice nonalcoholic steatohepatitis (NASH) model; assay: ob/ob mice high-fat diet NASH model, 6 weeks dosing: serum lipids, liver weight, liver function, liver lipids; assay type: in vivo; conditions: 10 nmol/kg
Procedure: as §3

[6] = test system: ob/ob mice nonalcoholic steatohepatitis (NASH) model; assay: ob/ob mice high-fat diet NASH model, 6 weeks dosing: liver pathological scores; assay type: in vivo; conditions: 10 nmol/kg twice a week, Mean ± SEM, n = 10
Procedure: as §3

[7] = mouse models; cited from earlier work
[8] = 10 nmol/kg (semaglutide QD, dual target 1# BIW), 16 weeks, Mean ± SD, n = 6-7

Semaglutide
Epididymal fat [1, 8]: 1.0 ± 0.5 g
Perirenal fat [1, 8]: 0.6 ± 0.6 g
Subcutaneous fat [1, 8]: 0.9 ± 1.0 g
Total Fat [1, 8]: 2.6 ± 2.1 g
weight loss ([1]; 10 nmol/kg, 16 weeks): 24.3%
blood glucose AUCO-72h after the first administration, compared with the Model group ([1]; 10 nmol/kg, p<0.05): significantly reduce
body weight growth rate compared with the Model group ([1]; 16 weeks, P<0.001): significantly reduce
insulin level compared with Model ([1]; end of experiment, serum, P<0.001): significantly reduce
HOMA-IR index compared with Model ([1]; end of experiment, P<0.001): significantly reduce
IPGTT: blood glucose after glucose administration and area under the blood glucose curve, compared with Model ([1]; weeks 2, 8 and 16, 30-90 min or 15-90 min after glucose): significantly reduce
TG in liver homogenate compared with the Model [2]: significantly reduce
liver absolute weight compared with the Model [2]: significantly reduce
serum ALT level compared with the Model [2]: significantly reduce
serum AST level compared with the Model [2]: significantly reduce
serum TC compared with Model [2]: significantly reduce
serum TG compared with Model [2]: significantly reduce
NAS total score [3]: 0.0 ± 0.0
Fibrosis Manual Score ([3]; Sirius red, score 1-3): 1.5 ± 0.5
Balloon degeneration ([3]; score): 0.0 ± 0.0
Inflammation ([3]; score): 0.0 ± 0.0
Liver steatosis ([3]; score): 0.0 ± 0.0

Dulaglutide
weight growth rate compared with the model group ([4]; D1 to D43): decreased significantly
average weight loss rate ([4]; D1 to D43, p<0.01 or 0.001): 8.9%
blood glucose level versus model group ([4]; after 5 days, P>0.05): less different from that of the model group
level of serum TG compared with the model group [5]: significantly decreased
serum TC level compared with the model group [5]: not significantly decreased
Inflammatory infiltration Scores [6]: 0.57 ± 0.13
Liver ballooning Scores [6]: 0.43 ± 0.26
NAS scores [6]: 3.80 ± 0.41
Steatosis Scores [6]: 2.80 ± 0.07

B1: FGF21: member of the FGF family (fibroblast growth factors); native FGF21 with short half-life (protein, UniProt Q9NSA1 29-209, looked up)
Fibroblast growth factor 21: HPIPDSSPLLQFGGQVRQRYLYTDDAQQTEAHLEIREDGTVGGAADQSPESLLQLKALKPGVIQILGVKTSRFLCQRPDGALYGSLHFDPEACSFRELLLEDGYNVYQSEAHGLPLHLPGNKSPHRDPAPRGPARFLPLPGLPPALPEPPGILAPQPPDVGSSDPLSMVGPSQGRSPSYAS
half-life [7]: about 1 h
